Test results taken from patent publication US20220062299A1, “USE OF GLUCOCORTICOID STEROIDS IN PREVENTING AND TREATING CONDITIONS OF MUSCLE WASTING, AGING AND METABOLIC DISORDER” (NORTHWESTERN UNIVERSITY, priority 2018, published 2022).

Tested on: BCKDHA and mTOR pathway members in mdx muscle
Experiment: Protein analysis of BCKDHA and mTOR pathway members in mdx muscle
Assay type: in vivo, mouse
Settings: weekly prednisone
Description: Animal handling and steroid regimens. Mice were housed in a pathogen-free dedicated vivarium in accordance with Institutional Animal Care and Use Committee (IACUC) guidelines. Euthanasia was performed through carbon dioxide inhalation followed by cervical dislocation and heart removal. All methods using living animals in this study were performed in ethical accordance with the American Veterinary Medical Association (AVMA) and under protocols fully approved by both the Institutional Animal Care and Use Committee (IACUC) at Northwestern University Feinberg School of Medicine (protocol number ISO00000761). Consistent with the ethical approvals, all efforts were made to minimize suffering. Mice were fed ad libitum with Mouse Breeder Sterilizable Diet (#7904; Harlan Teklad, Indianapolis, Ind.) and maintained on a 12-hour light/dark cycle. mdx mice from the DBA/2J background were obtained from the Jackson Laboratory (Bar Harbor, Me.; stock #013141) and interbred. Male mice were used for reported experiments. Age at start was approximately 6 months for short-term experiments, approximately 6 weeks for long-term experiments. Dysferlin-null (Dysf-null) mice from the 129T2/SvEmsJ background were previously characterized (Demonbreun et al., 2011; Demonbreun et al., 2014). Age at start was approximately 9 months for long-term experiments. For experiments with Dysf-null and wildtype mice, both females and males (approximately 1:1 ratio) were randomized in treatment groups. […] Dosing was based on weekly weight measurements (1 mg/kg body weight, (Sali et al., 2012)) in 100 μl total PBS volume per dose. Mice were injected daily via intraperitoneal injection at 7 AM. On injection days, stock solutions stored at −20° C. were diluted into sterile Eppendorf tubes containing sterile phosphate buffered saline (PBS) (#14190; Thermo Fisher, Waltham, Mass.). Puromycin (cat #A1113803, Thermo Scientific, Waltham, Mass.) was administered i.p. as 0.040 μmol/body g, and tissues were snap-frozen 30 minutes after injection. Sterile BD Micro-Fine IV Insulin Syringes (#14-829-1A; Fisher Scientific, Waltham, Mass.) were used to inject the intraperitoneal cavity of non-sedated animals. All animal analyses both during treatment and at endpoint were conducted blinded to treatment groups.
Protein analysis. Protein lysates from approximately 50 mg muscle tissue were obtained with homogenization at the TissueLyser II (cat #85300; Qiagen, Hilden, Germany) for two rounds of 2 minutes each with 2 minutes pause in between, using sample plates chilled at −20° C. o/n and one stainless 5 mm bead per sample (cat #69989; Qiagen, Hilden, Germany). […]

[1] = mdx muscle, 12-week-long treatment

## C[C@]12C=CC(=O)C=C1CC[C@@H]1[C@@H]2C(=O)C[C@@]2(C)[C@H]1CC[C@]2(O)C(=O)CO [prednisone, Prednisone]
[1]
  levels of mTOR-bound RagC and phosphorylation of S6K and 4EBP1: increased
  protein translation and muscle mass (puromycin incorporation and myofiber size): increased
Quadriceps muscle of mdx mice
  phosphorylation of BCKDHA: reduced
  total levels of branched chain keto acid dehydrogenase (BCKDHA): increased
